Measured values: PubChem BioAssay AID2060617 (Molecular Pharmacology Branch, DTP, NCI, 2025)

Tested on: 485368-065-R4-J2-PDC spheroids with HUVEC/MSC, viability
Assay: Anticancer human tumor 485368-065-R4-J2-PDC patient-derived pancreatic carcinoma cell line growth inhibition [CLK]
Conditions: for IC50: curve of first compound; for viability, T/C: stronger effect = lower value
Outline: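 Multi-cell-type spheroids combined patient-derived tumor cells with HUVEC endothelial cells and human mesenchymal stem cells. Paired agents were dosed in half-log steps down from about clinical Cmax, or from 10 microM where Cmax was unknown.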
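Further: spheroids exposed to compounds for seven days.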
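Wherever viability, T/C is given: 100% = DMSO vehicle control wells.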

Q: Which results are given for `Cn1ncnc1[C@H]1c2n[nH]c(=O)c3cc(F)cc(c23)N[C@@H]1c1ccc(F)cc1` + CN1CCN(c2cc(C(=O)Nc3cc4cc(-c5cnn(C)c5)ccc4cn3)ccn2)CC1?
A: IC50 (second compound 0.0316 µM): > 100 nM; IC50 (second compound 0.1 µM): > 100 nM; IC50 (second compound 0.316 µM): 88.6 nM; IC50 (second compound 1 µM): < 0.316 nM; IC50 (second compound 3.16 µM): < 0.316 nM; IC50 (second compound 10 µM): < 0.316 nM; viability, T/C (second compound 0.0316 µM, first compound 0.000316 µM): 99.9%; viability, T/C (second compound 0.0316 µM, first compound 0.001 µM): 107%; viability, T/C (second compound 0.0316 µM, first compound 0.00316 µM): 105%; viability, T/C (second compound 0.0316 µM, first compound 0.01 µM): 105%; viability, T/C (second compound 0.0316 µM, first compound 0.0316 µM): 109%; viability, T/C (second compound 0.0316 µM, first compound 0.1 µM): 88.7%; viability, T/C (second compound 0.1 µM, first compound 0.000316 µM): 108%; viability, T/C (second compound 0.1 µM, first compound 0.001 µM): 112%; viability, T/C (second compound 0.1 µM, first compound 0.00316 µM): 119%; viability, T/C (second compound 0.1 µM, first compound 0.01 µM): 109%; viability, T/C (second compound 0.1 µM, first compound 0.0316 µM): 96.6%; viability, T/C (second compound 0.1 µM, first compound 0.1 µM): 75.9%; viability, T/C (second compound 0.316 µM, first compound 0.000316 µM): 85.2%; viability, T/C (second compound 0.316 µM, first compound 0.001 µM): 87.8%; viability, T/C (second compound 0.316 µM, first compound 0.00316 µM): 84.1%; viability, T/C (second compound 0.316 µM, first compound 0.01 µM): 72.2%; viability, T/C (second compound 0.316 µM, first compound 0.0316 µM): 55.9%; viability, T/C (second compound 0.316 µM, first compound 0.1 µM): 49.2%; viability, T/C (second compound 1 µM, first compound 0.000316 µM): 1.46%; viability, T/C (second compound 1 µM, first compound 0.001 µM): 0.88%; viability, T/C (second compound 1 µM, first compound 0.00316 µM): 1.83%; viability, T/C (second compound 1 µM, first compound 0.01 µM): 0.77%; viability, T/C (second compound 1 µM, first compound 0.0316 µM): 1.6%; viability, T/C (second compound 1 µM, first compound 0.1 µM): 1.69%; viability, T/C (second compound 3.16 µM, first compound 0.000316 µM): 1%; viability, T/C (second compound 3.16 µM, first compound 0.001 µM): 1.76%; viability, T/C (second compound 3.16 µM, first compound 0.00316 µM): 0.88%; viability, T/C (second compound 3.16 µM, first compound 0.01 µM): 1.07%; viability, T/C (second compound 3.16 µM, first compound 0.0316 µM): 1.7%; viability, T/C (second compound 3.16 µM, first compound 0.1 µM): 1.76%; viability, T/C (second compound 10 µM, first compound 0.000316 µM): 2.24%; viability, T/C (second compound 10 µM, first compound 0.001 µM): 1.19%; viability, T/C (second compound 10 µM, first compound 0.00316 µM): 1.54%; viability, T/C (second compound 10 µM, first compound 0.01 µM): 2.1%; viability, T/C (second compound 10 µM, first compound 0.0316 µM): 2.02%; viability, T/C (second compound 10 µM, first compound 0.1 µM): 1.77%
